From patent publication US20060211606A1, “Peptides” (priority 2005, published 2006)
Entries after “also recorded” stand apart in the source; their conditions may differ. *1 amine or outer side, *2 acyl side, *3 side chain or, on linkers, in order; H or OH if unused. [ ]: non-standard residue; d: D form. PEG (Jeffamine) = not defined here; Suc = O=C(CCC(=O)[*:2])[*:1]

Assays:
[1] = system: rat organotypic hippocampal cultures; experiment: TBH oxidative stress in rat organotypic hippocampal cultures, PI-stained cell death; type: cell-based; settings: for time for which the neuroprotective effect was observed: rat hippocampal slices after TBH challenge; for protection against TBH-induced cell death: rat hippocampal slices, 24 hours, peptide 10 ng/ml as printed
Description: Hippocampal slices were prepared from 7-10 days old Wistar rats according to the method of Stoppini et al (1991) with minor modifications according to Sarnowska (2002). Briefly, rats were anaesthetised with Vetbutal, ice-cooled and decapitated. Brains were quickly removed to ice-cold working solution pH 7.2: 96% of HBSS/HEPES-(Ca2^+ and Mg2^+ free) containing 2 mmol/L L-glutamine, 5 mg/ml glucose, 1% amphotericine B, 0.4% penicillin-streptomycin. Hippocampi were separated and cut into 400 μm slices using McIlwain tissue chopper. […] Four selected slices were settled on each membrane. Slices were cultivated for two weeks at 32° C. in 5% CO2 atmosphere of 100% humidity. The viability of the slices was checked daily under the light microscopy and evaluated additionally on the day of experiment by propidium iodide staining and observed under fluorescent microscope (Zeiss Axiovert 25) with MC-10095 camera (Carl Zeiss Jena GmbH) in order to record initial PI uptake (Sarnowska, 2002).
Oxidative stress was induced after 14 days in culture by adding 30 mM TBH ([…]) for 3 hours. After that time the slices were transferred to the fresh culture medium. Resulting cell death was assessed 24 and 48 h after the beginning of the experiment.
In order to investigate a pathway in which the MGF acts, a specific anti-IGF-1 receptor (AB-1) blocking antibody (Oncogene) was included in the medium 1 hour before the slices were exposed to TBH and MGF or IGF-1 peptide. The concentration of the antibody (1000 ng/ml) was used according to the manufacturer's recommendation.
To obtain detailed images of the slices, a confocal laser scanning microscope (Zeiss LSM 510) was used. A helium-neon laser (543 nm) was used for the excitation of propidium iodide (PI). […] Quantitative measurement of tissue deterioration was performed using image analyser KS 300 (Carl Zeiss Jena GmbH).
Cell damage was quantified on fluorescence images of PI-stained cultures 24 and 48 hours after TBH challenge. The relative extent of cell death was calculated from each standardized CA1 region as follows: % of dead cells=(experimental fluorescent intensity (FI)−background FI)/(maximal FI−background FI)×100, where maximal FI was obtained by killing all cells with exposure to 100 mM glutamate.
All the measurements were repeated for 5 independent culture preparations and 8 slices were used for each experimental condition. Statistical significance of the differences between the results was calculated using one-way Anova followed by Dunnet's test, (GraphPad Prism 3.02).
Rat brain slices were isolated following induction of localized damage by TBH (tert-butyl hydroperoxide) as discussed above. The resulting cell death in treated and non-treated brain slices was determined. […]

[2] = system: C2C12 muscle cells; experiment: C2C12 proliferation, Alamar Blue assay; type: cell-based, mouse; settings: 2000 cells per well; 2, 5, 50 and 100 ng/ml; medium with IGF-I 2 ng per ml; 36 hours
Description: (A) DMGF and CMGF Peptides: C2C12 Cells were provided at 2000 cell/well, in a medium containing DMEM (1000 mg/L glucose), plus BSA(100 ug/ml), plus IGF-I (2 ng per ml) and incubated for 36 hours. Cell proliferation was then assessed using an Alamar Blue assay. […] Y-axis values are fluorescence (wavelength of excitation 535 nm, measurement at 590 nm; mean plus standard error) in an Alamar Blue assay.
The 8 amino acid peptides described in 1.3.1 above and referred to in FIG. 8A as DMGF and CMGF were tested for the ability to induce proliferation of C2C12 muscle cells at a density of 2000 cells per well in a medium containing DMEM (1000 mg/L glucose), BSA (10 ug/ml) and IGF-I (2 ng per ml). Concentrations of 2, 5, 50 and 100 ng/ml of DMGF and CMGF were tested (See the left-hand and middle sets of results in FIG. 8), along with 2, 5, 50 and 100 ng/ml IGF-I alone (See the right-hand set of results in FIG. 8). After 36 hours incubation, an Alamar Blue assay was used to assess the level of cell proliferation achieved. A control containing only the medium was also provided.

[3] = system: primary human muscle cell cultures; experiment: Creatine phosphokinase (CPK) assay of myogenic differentiation / myotube formation; type: cell-based; settings: for effect on myoblast differentiation and myotube formation: differentiation medium, 48 hours, peptide alone (IGF-I 10 ng/ml)
Description: This assay was performed using previously published protocols [Auluck et al., 2005]. Measurement of CPK allows for the quantitative comparison of myogenesis [Goto et al., 1999], as it is a marker of myotube formation. The enzyme CPK catalyzes the reversible phosphorylation of adenosine-5-diphosphate (ADP) to form adenosine-5-triphosphate (ATP) and free creatine. The reaction may be followed in either direction by measuring the formation of inorganic phosphorus, an end-product of the reaction which is proportional to CPK activity. This was measured using the calorimetric method based on the generation of inorganic phosphate [Fiske and Subbarow, 1925] procedure. This was then expressed in terms of the protein content of the culture.
Previously expanded primary human muscle cell cultures were re-plated at 10×10^4 cells/well in 0.2% gelatin coated 96 well plates. […] (Sigma-Aldrich IGF-I ER2). After 48 hours, cells were washed twice with ice cold PBS and then stored frozen in 0.5 mM glycine buffer (pH 6.75) at −70° C. Fixed cells were lysed by rapid thawing and CPK assay kit used according to manufacturers instructions (Sigma-Aldrich). The protein concentration of each sample was determined against an albumin standard curve using the Pierce Micro BCA Kit (PerBio Science, UK Ltd., Northumberland, UK).

[4] = system: tibialis anterior muscle of non-dystrophic mice; experiment: Intramuscular injection into tibialis anterior of non-dystrophic mice, muscle strength; type: in vivo; settings: i.m. twice weekly 25 μl containing 17 μg, within a few weeks
[5] = system: infarcted murine heart; experiment: Murine myocardial infarction (LAD ligation), pressure/volume loops; type: in vivo, mice; settings: murine MI by LAD ligation; systemic administration
Description: All panels show pressure (mmHg) on the Y-axis and Relative Volume Units on the X-axis.
Additional experiments were carried out on mice. In these studies the MI was produced by ligating the left anterior descending (LAD) coronary artery of the murine heart. This causes dilation of the left ventricle, the progression of which leads to heart failure. […] Therefore there is considerable potential for treatment of patients immediately following a heart attack.

## IGF-I: IGF-I receptor binding domain encoded by Exons 3 and 4, common to all splice variants, approximately 70 amino acids [reference compound]
[1]
  time for which the neuroprotective effect was observed: up to 24 hours
  protection against TBH-induced cell death: 72%
[2]
  proliferation of C2C12 cells (Alamar Blue fluorescence): statistically different to the control value
[3]
  effect on myoblast differentiation and myotube formation: apparently stimulates myotube formation
[3]; listed as mature IGF-I
  effect on myoblast differentiation and myotube formation: enhanced differentiation

## stabilised peptide: SEQ ID NO: 15 with D-Arginine at positions 14 and 15, N-terminus attached to PEG (Jeffamine) via succinic acid bridge, amidated at C-terminus ({PEG (Jeffamine)-Suc}-YQPPSTNKNTKSQ[dR][dR]KGSTFEEHK-NH2; reading uncertain)
[4]
  increase in muscle strength: more than 25%
[5]
  strength and function of the heart by pressure/volume loops: markedly improved the strength and function of the heart
[1]
  time for which the neuroprotective effect was observed: ≥ 48 h
  protection against TBH-induced cell death: 85%
[3]
  effect on myoblast differentiation and myotube formation: no effect on myotube formation; also recorded: did not facilitate primary myoblast differentiation and myotube formation
[3]; stabilised peptide with 10 ng/ml IGF-I, dose-dependent
  effect on differentiation in the presence of 10 ng/ml IGF-I: prevented differentiation to the myoblast fusion competent stage
